Where two headings read alike, the source gives them in different places.
Key:
human CYP51A1 [1] = molecular target: T1, human CYP51A1 (Homo sapiens, UniProt Q16850); conditions: cited from earlier work; for affinity: direct coordination with heme iron; for Kd: read-out: Kdapp
T1 construct: made in house
T1 sequence (Q16850 1-509): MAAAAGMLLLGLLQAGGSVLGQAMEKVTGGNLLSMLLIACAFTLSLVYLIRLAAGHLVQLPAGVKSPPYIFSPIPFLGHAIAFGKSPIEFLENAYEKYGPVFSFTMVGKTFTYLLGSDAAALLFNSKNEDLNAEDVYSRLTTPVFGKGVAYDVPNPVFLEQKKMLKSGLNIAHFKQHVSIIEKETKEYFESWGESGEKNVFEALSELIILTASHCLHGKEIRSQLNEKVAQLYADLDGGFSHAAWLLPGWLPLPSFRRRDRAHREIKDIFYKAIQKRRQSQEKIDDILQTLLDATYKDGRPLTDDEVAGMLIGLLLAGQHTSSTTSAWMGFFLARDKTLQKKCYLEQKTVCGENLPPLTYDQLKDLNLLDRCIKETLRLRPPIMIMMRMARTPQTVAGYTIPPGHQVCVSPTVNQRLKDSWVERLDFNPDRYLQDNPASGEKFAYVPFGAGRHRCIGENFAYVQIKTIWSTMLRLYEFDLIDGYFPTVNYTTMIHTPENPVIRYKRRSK

CYP1A, CYP2B and CYP3A4 = conditions: range over CYP1A; cited from earlier work
human CYP51A1 [2] = molecular target: T1, human CYP51A1; assay: Spectrophotometric titration (difference spectra) of CYP51A1 in the presence of lanosterol; format: binding; conditions: for Kd: spectral titration, CYP51A1 4 μM, lanosterol 5 μM, pH 7.4, room temperature, read-out: apparent dissociation constant (Kdapp); for spectral response in the difference spectrum of CYP51A1: titration in the presence of lanosterol, baicalein and luteolin 7,3′-disulfate up to 30 μM, luteolin up to 15 μM
Method: Spectrophotometric titration was used to determine the apparent dissociation constants (Kdapp) for the enzyme–ligand complexes. The spectral measurements were performed on Cary Series UV-Vis-NIR (Agilent Technologies, Santa Clara, CA, USA) spectrophotometer using tandem quartz cuvettes (1 cm optical path) to exclude the absorption of ligands. Natural substrate, lanosterol, at final concentration 5 μM was added before the titration to the CYP51A1 (final concentration 4 μM) in 50 mM potassium phosphate buffer, pH 7.4. […] The difference spectra were recorded after each addition of ligand at room temperature in the range of 350–500 nm. The apparent dissociation constants were determined by plotting the absorbance changes in the difference spectra versus the concentration of free ligand and evaluated by using the Hill equation (OriginPro 8.1 statistical data analysis package): Aobs=Amax×(S×n/Kdapp×n+S×n), where Aobs—the observed change in the absorption, Amax—the absorbance change at ligand saturation, Kdapp—the apparent dissociation constant for the ligand–enzyme complex, S—the ligand concentration, n—a Hill coefficient.

human CYP51A1 [3] = molecular target: T1, human CYP51A1; assay: Surface plasmon resonance binding to immobilized CYP51A1; conditions: SPR; for Kd: immobilized CYP51A1, read-out: Kd (equilibrium dissociation constant)
CYP3A4 = conditions: cited from earlier work
CYP2C9 = tested on: CYP2C9; design: method as in PMID 32661014; conditions: comparable to positive control sulfaphenazole; cited from earlier work
CYP2C19 = conditions: cited from earlier work
[4] = molecular target: T2, human CYP51A1 (lanosterol 14α-demethylase) (Homo sapiens, UniProt Q16850); assay: Lanosterol 14α-demethylase activity of CYP51A1 in the reconstituted system; format: biochemical; conditions: for Relative Activity: CYP51A1 0.5 μM, CPR 2.0 μM, lanosterol 50 μM
T2 construct: made in house
T2 sequence (Q16850 1-509): T1 sequence (Q16850 1-509)

[5] = tested on: CYP1A2, CYP3A, CYP2B6, CYP2E1 and CYP2D6; design: method as in PMID 28872689, PMID 18191104; conditions: range over CYP1A2, CYP3A; cited from earlier work
CYP2D6 = tested on: CYP2D6; design: method as in PMID 32942157; conditions: 20 μM luteolin; cited from earlier work
[6] = 25 °C, Langmuir 1:1 model, n = 3, read-out: koff (dissociation rate constant)
[7] = 25 °C, Langmuir 1:1 model, n = 3, read-out: kon (association rate constant)
[8] = 25 °C, Two state reaction model, n = 3
[9] = concentration-dependent, up to 30 μM

In the case of `CCCN(CCc1ccc(Cl)c(Cl)c1)CC(O)c1cccnc1` (stereo not drawn) [LK-935, 2-((3,4-Dichlorophenethyl)(Propyl)Amino)-1-(Pyridin-3-Yl)Ethanol], the affinity (human CYP51A1 [1]) is given as “submicromolar range”.
In the case of `C[C@]12CC[C@H](O)CC1=CC[C@@H]1[C@@H]2CC[C@]2(C)C(c3cccnc3)=CC[C@@H]12` [abiraterone], the Kd (human CYP51A1 [1]) is listed as 22 µM.
For `O=c1cc(-c2ccccc2)oc2cc(O)c(O)c(O)c12` [baicalein], the IC50 (CYP1A, CYP2B and CYP3A4) is given as 0.5 to 36 µM, the Kd (human CYP51A1 [2]) is given as 8.2 ± 0.4 µM and the “spectral response in the difference spectrum of CYP51A1” value (human CYP51A1 [2]) is given as “reverse type I spectral response”. The Kd (human CYP51A1 [3]; 25 °C) was 12.5 µM.
For `O=c1cc(-c2ccccc2)oc2cc(OS(=O)(=O)O)cc(O)c12` [chrysin 7-sulfate], the inhibition effect (CYP3A4) is listed as “slight inhibition effect”, the IC50 (CYP2C9) is listed as 2.7 µM and the inhibition effect (CYP2C19) is listed as “slight inhibition effect”.
For `Clc1ccc(COC(Cn2ccnc2)c2ccc(Cl)cc2Cl)cc1` (stereo not drawn) [econazole], the affinity (human CYP51A1 [1]) is listed as “submicromolar range”.
For `C[C@]12CC[C@H](O)CC1=CC[C@@H]1[C@@H]2CC[C@]2(C)C(n3cnc4ccccc43)=CC[C@@H]12` [galeterone], the Kd (human CYP51A1 [1]) is given as 16 µM.
In the case of `CC(C)=CCC[C@@H](C)[C@H]1CC[C@@]2(C)C3=C(CC[C@]12C)[C@@]1(C)CC[C@H](O)C(C)(C)[C@@H]1CC3` [lanosterol], the koff (human CYP51A1 [3]; [6]) is reported as 0.0001 s⁻¹, the kon (human CYP51A1 [3]; [7]) is reported as 41.4 M⁻¹ s⁻¹ and the Kd (human CYP51A1 [3]; 25 °C) is reported as 2.4 µM.
With `O=c1cc(-c2ccc(O)c(OS(=O)(=O)O)c2)oc2cc(OS(=O)(=O)O)cc(O)c12` [luteolin 7,3′-disulfate] the “spectral response in the difference spectrum of CYP51A1” value (human CYP51A1 [2]) was “does not cause changes in the difference spectrum”, the koff (human CYP51A1 [3]; [6]) was 0.00084 s⁻¹ and the kon (human CYP51A1 [3]; [7]) was 294 M⁻¹ s⁻¹. For the same compound, the Kd (human CYP51A1 [3]; 25 °C) was 2.9 µM, the “association rate of the CYP51A1 complex compared to lanosterol” value (human CYP51A1 [3]; relative to complex formation with lanosterol) was “seven times faster” and the “dissociation rate of the CYP51A1 complex compared to lanosterol” value (human CYP51A1 [3]; relative to complex with lanosterol) was “about eight times higher”. The “Relative Activity” value ([4]; compound 25 μM) was 49.9%, the inhibition at 25 µM ([4]; compound 25 μM, read-out: level of inhibition) was 50.1% and the IC50 ([4]; reconstituted system, 5, 10, 25, 50 and 100 μM tested, read-out: apparent IC50) was greater than 25 µM.
For `O=c1cc(-c2ccc(O)c(O)c2)oc2cc(O)cc(O)c12` [luteolin], the IC50 [5] is given as 1.6 to 133 µM, the “O-demethylation of 3-[2-(N,N-diethyl-N-methyl-ammonium)ethyl]-7-methoxy-4-methylcoumarin inhibited to” value (CYP2D6) is given as 40% and the “inhibition in reaction with dextromethorphan” value (CYP2D6) is given as less than 5%. The Kd (human CYP51A1 [2]) was 5.1 ± 0.5 µM, the “spectral response in the difference spectrum of CYP51A1” value (human CYP51A1 [2]) was “reverse type I spectral response” and the “koff2 (backward rate constant for CP ↔ CP* transition)” value (human CYP51A1 [3]; [8]) was “koff2 (1/s × 10^−4) = 14 ± 2”. For the same compound, the “kon2 (forward rate constant for CP ↔ CP* transition)” value (human CYP51A1 [3]; [8]) was “kon2 (1/s × 10^−4) = 33 ± 4”, the koff (human CYP51A1 [3]; 25 °C, Two state reaction model, n = 3, read-out: koff1 (dissociation rate constant)) was 0.019 s⁻¹ and the kon (human CYP51A1 [3]; 25 °C, Two state reaction model, n = 3, read-out: kon1 (association rate constant)) was 282 M⁻¹ s⁻¹. The Kd (human CYP51A1 [3]; 25 °C) was 20 µM and the “Relative Activity” value ([4]; compound 25 μM) was 92.6%.
In the case of `O=c1c(O)c(-c2ccc(O)c(OS(=O)(=O)O)c2)oc2cc(O)cc(O)c12` [quercetin 3′-sulfate], the inhibition effect (CYP3A4; [9]) is listed as no more than 50% and the inhibition effect (CYP2C19; [9]) is listed as no more than 50%.

Source: paper PMC8070018, “Human Lanosterol 14-Alpha Demethylase (CYP51A1) Is a Putative Target for Natural Flavonoid Luteolin 7,3′-Disulfate” (Molecules, 2021)
